Assay [1] concerns the target T1, Glucocorticoid receptor (Homo sapiens, UniProt P04150).
T1 sequence (P04150 whole entry): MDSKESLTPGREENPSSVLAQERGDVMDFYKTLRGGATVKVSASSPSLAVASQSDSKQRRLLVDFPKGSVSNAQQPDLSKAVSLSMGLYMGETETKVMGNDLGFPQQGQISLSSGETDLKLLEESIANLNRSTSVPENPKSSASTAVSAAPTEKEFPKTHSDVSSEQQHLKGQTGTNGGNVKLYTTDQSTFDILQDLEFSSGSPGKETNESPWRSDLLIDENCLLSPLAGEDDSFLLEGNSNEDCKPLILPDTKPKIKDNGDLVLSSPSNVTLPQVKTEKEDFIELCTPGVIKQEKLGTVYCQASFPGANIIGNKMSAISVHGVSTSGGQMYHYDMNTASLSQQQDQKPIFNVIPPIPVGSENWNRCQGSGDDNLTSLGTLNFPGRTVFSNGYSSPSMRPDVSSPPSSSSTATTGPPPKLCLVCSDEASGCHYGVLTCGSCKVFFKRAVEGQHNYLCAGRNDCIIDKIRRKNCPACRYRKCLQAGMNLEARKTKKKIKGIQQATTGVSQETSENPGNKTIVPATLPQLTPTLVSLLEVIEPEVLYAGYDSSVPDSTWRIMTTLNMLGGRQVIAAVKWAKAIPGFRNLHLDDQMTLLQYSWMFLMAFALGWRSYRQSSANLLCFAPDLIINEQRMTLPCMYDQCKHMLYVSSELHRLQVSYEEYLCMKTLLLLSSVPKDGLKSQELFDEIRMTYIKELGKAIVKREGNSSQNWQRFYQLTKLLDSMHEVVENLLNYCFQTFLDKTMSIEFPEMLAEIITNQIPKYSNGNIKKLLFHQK
Description: Agonist activity at GR in human A549 cells by NF-kappaB transrepression assay

Assay [2] is described as follows: Selectivity ratio of pIC50 for androgen receptor to pIC50 for human glucocorticoid receptor.
Assay [3] in a line: Selectivity ratio of pIC50 for estrogen receptor to pIC50 for human glucocorticoid receptor.
Assay [4] is described as follows: Selectivity ratio of pIC50 for progesterone receptor to pIC50 for human glucocorticoid receptor.

The structures appear in SMILES notation. Some results are limits rather than exact numbers.

The term IC50 denotes the concentration at which inhibition is half-maximal. Read a low IC50 as greater potency in that assay. As to `CCC1(CC(O)(CNC(=O)c2cnn(-c3ccccc3)c2N)C(F)(F)F)CCCc2ccccc21` (racemic), half-maximal inhibition in assay [1] (IC50) required 1.58 nM.

On to `CCN(CC(O)(CNc1cccc2c1cnn2-c1ccc(F)cc1)C(F)(F)F)C(=O)c1c(C)cccc1C` (racemic), for which the Ratio pIC50 in assay [2], in assay [3] and in assay [4] was more than 50 each time. This molecule also gave an IC50 in assay [1] of 0.501 nM.

In the case of `CCN(CC(O)(CNc1cccc2c1cnn2-c1ccc(F)cc1)C(F)(F)F)C(=O)c1ccccc1F` (racemic) [listing 1 of 2 here], in assay [1], the half-maximal inhibitory concentration (IC50) was 0.2 nM.

As for `CCN(CC(O)(CNc1cccc2c1cnn2-c1ccc(F)cc1)C(F)(F)F)C(=O)c1ccccc1C` (racemic), the Ratio pIC50 in assay [2], in assay [3] and in assay [4] was more than 50 throughout. The same molecule showed an IC50 in assay [1] of 0.316 nM.

Molecule `CCN(CC(O)(CNc1cccc2c1cnn2-c1ccc(F)cc1)C(F)(F)F)C(=O)c1c(Cl)cccc1Cl` (racemic) [listing 1 of 2 here] gave an IC50 in assay [1] of 0.126 nM.

As for `CCN(CC(O)(CNc1cccc2c1cnn2-c1ccc(F)cc1)C(F)(F)F)C(=O)c1c(F)cccc1F` (racemic), the Ratio pIC50 in assay [2], in assay [3] and in assay [4] was more than 50 in each case. Besides, the IC50 in assay [1] was 0.316 nM.

Consider `CCCN(CC(O)(CNc1cccc2c1cnn2-c1ccccc1)C(F)(F)F)C(=O)c1ccccc1` (racemic), for which the Ratio pIC50 in assay [2], in assay [3] and in assay [4] was more than 50 each time. In assay [1], this molecule had an IC50 of 3.16 nM.

On to `CCN(CC(O)(CNc1cccc2c1cnn2-c1ccccc1)C(F)(F)F)C(=O)c1ccccc1F` (racemic), for which the Ratio pIC50 in assay [2], in assay [3] and in assay [4] was more than 50 in each case. In addition, 0.316 nM corresponded to half-maximal inhibition in assay [1] (IC50).

Regarding `CCN(CC(O)(CNc1cccc2c1cnn2-c1ccccc1)C(F)(F)F)S(=O)(=O)c1ccc(F)cc1` (racemic), the Ratio pIC50 in assay [2], in assay [3] and in assay [4] was more than 50 each time. This molecule showed an IC50 in assay [1] of 7.94 nM.

Regarding `CCN(CC(O)(CNc1cccc2c1cnn2-c1ccccc1)C(F)(F)F)S(=O)(=O)c1ccccc1` (racemic), the Ratio pIC50 in assay [2], in assay [3] and in assay [4] was more than 50 throughout. This molecule showed an IC50 in assay [1] of 2.51 nM.

`CN(CC(O)(CNc1cccc2c1cnn2-c1ccccc1)C(F)(F)F)C(=O)c1ccccc1` (racemic): the Ratio pIC50 in assay [2], in assay [3] and in assay [4] was more than 50 each time. This molecule also had a concentration for half-maximal inhibition (IC50) in assay [1] of 5.01 nM.

For the molecule `CCN(CC(O)(CNc1cc(C)cc2c1cnn2-c1ccccc1)C(F)(F)F)C(=O)c1ccccc1` (racemic), the Ratio pIC50 in assay [2], in assay [3] and in assay [4] was more than 50 each time. The IC50 in assay [1] is 0.398 nM.

`CCN(CC(O)(CNc1cc(C)cc2c1cnn2-c1ccccc1)C(F)(F)F)C(=O)c1ccccc1F` (racemic): the Ratio pIC50 in assay [2], in assay [3] and in assay [4] was more than 50 throughout. In assay [1], this molecule showed an IC50 of 0.251 nM.

With `CCN(CC(O)(CNc1cccc2c1cnn2-c1ccc(F)cc1)C(F)(F)F)C(=O)c1ccccc1` (racemic), the Ratio pIC50 in assay [2], in assay [3] and in assay [4] was more than 50 each time. Moreover, in assay [1], the IC50 is 0.794 nM.

`CCN(CC(O)(CNc1cc(C)cc2c1cnn2-c1ccc(F)cc1)C(F)(F)F)C(=O)c1ccccc1` (racemic): the Ratio pIC50 in assay [2], in assay [3] and in assay [4] was more than 50 in each case. This molecule also had an IC50 in assay [1] of 0.398 nM.

With `CCN(CC(O)(CNc1nc(C)nc2c1cnn2-c1ccccc1)C(F)(F)F)S(=O)(=O)c1ccc(F)cc1` (racemic), the Ratio pIC50 in assay [2], in assay [3] and in assay [4] was more than 50 each time. In addition, it took 25.1 nM to reach half-maximal inhibition in assay [1] (IC50).

In the case of `CCN(CC(O)(CNc1cccc2c1cnn2-c1ccccc1)C(F)(F)F)C(=O)c1ccccc1` (racemic), the Ratio pIC50 in assay [2], in assay [3] and in assay [4] was more than 50 throughout. In assay [1], the IC50 is 0.794 nM.

Regarding `CCN(CC(O)(CNc1cccc2c1cnn2-c1ccc(F)cc1)C(F)(F)F)C(=O)c1ccccc1Cl` (racemic), the Ratio pIC50 in assay [2], in assay [3] and in assay [4] was more than 50 in each case. The IC50 in assay [1] was 0.251 nM.

Regarding `CCN(CC(O)(CNc1cc(C)cc2c1cnn2-c1ccc(F)cc1)C(F)(F)F)C(=O)c1ccccc1F` (racemic), the Ratio pIC50 in assay [2], in assay [3] and in assay [4] was more than 50 each time. Further, half-maximal inhibition in assay [1] (IC50) was put at 0.2 nM.

On to `CCN(CC(O)(CNC(=O)c1cnn(-c2ccccc2)c1N)C(F)(F)F)S(=O)(=O)c1ccc(F)cc1` (racemic), for which the Ratio pIC50 in assay [2], in assay [3] and in assay [4] was more than 50 each time. In assay [1], this molecule gave a half-maximal inhibitory concentration (IC50) of 31.6 nM.

Regarding `CCN(CC(O)(CNc1cccc2c1cnn2-c1ccc(F)cc1)C(F)(F)F)C(=O)c1c(Cl)cccc1Cl` (racemic) [listing 2 of 2 here], the Ratio pIC50 in assay [2], in assay [3] and in assay [4] was more than 50 each time.

As for `CCN(CC(O)(CNc1cccc2c1cnn2-c1ccc(F)cc1)C(F)(F)F)C(=O)c1ccccc1F` (racemic) [listing 2 of 2 here], the Ratio pIC50 in assay [2], in assay [3] and in assay [4] was more than 50 each time.

The molecule `CCN(CC(O)(CNc1cccc2c1cnn2-c1ccc(F)cc1)C(F)(F)F)C(=O)c1ccccc1F` (stereo in doubt; 32E1) [listing 1 of 2 here] had an IC50 in assay [1] of 0.126 nM.

As to `CCN(CC(O)(CNc1cccc2c1cnn2-c1ccc(F)cc1)C(F)(F)F)C(=O)c1ccccc1F` (stereo in doubt; 32E1) [listing 2 of 2 here], the Ratio pIC50 in assay [2], in assay [3] and in assay [4] was more than 50 each time.

For the molecule `CCN(CC(O)(CNc1cccc2c1cnn2-c1ccc(F)cc1)C(F)(F)F)C(=O)c1ccccc1F` (stereo in doubt; 32E2) [listing 1 of 2 here], half-maximal inhibition in assay [1] (IC50) required 31.6 nM.

In the case of `CCN(CC(O)(CNc1cccc2c1cnn2-c1ccc(F)cc1)C(F)(F)F)C(=O)c1ccccc1F` (stereo in doubt; 32E2) [listing 2 of 2 here], the Ratio pIC50 in assay [2], in assay [3] and in assay [4] was more than 50 in each case.

For the molecule `CCN(CC(O)(CNc1cccc2c1cnn2-c1ccc(F)cc1)C(F)(F)F)C(=O)c1c(Cl)cccc1Cl` (stereo in doubt; 38E1) [listing 1 of 2 here], half-maximal inhibition in assay [1] (IC50) was put at 0.0794 nM.

With `CCN(CC(O)(CNc1cccc2c1cnn2-c1ccc(F)cc1)C(F)(F)F)C(=O)c1c(Cl)cccc1Cl` (stereo in doubt; 38E1) [listing 2 of 2 here], the Ratio pIC50 in assay [2], in assay [3] and in assay [4] was more than 50 in each case.

Regarding `CCN(CC(O)(CNc1cccc2c1cnn2-c1ccc(F)cc1)C(F)(F)F)C(=O)c1c(Cl)cccc1Cl` (stereo in doubt; 38E2) [listing 1 of 2 here], the IC50 in assay [1] is 10 nM.

For `CCN(CC(O)(CNc1cccc2c1cnn2-c1ccc(F)cc1)C(F)(F)F)C(=O)c1c(Cl)cccc1Cl` (stereo in doubt; 38E2) [listing 2 of 2 here], the Ratio pIC50 in assay [2], in assay [3] and in assay [4] was more than 50 throughout.

For the origin of these results see ChEMBL document CHEMBL1153077, “Highly tractable, sub-nanomolar non-steroidal glucocorticoid receptor agonists” (Bioorg Med Chem Lett, 2009).
